In ChEMBL document CHEMBL4261617, “Design and synthesis of a novel series of non-nucleoside HIV-1 inhibitors bearing pyrimidine and N-substituted aromatic piperazine” (Bioorg Med Chem Lett, 2018):

How the values were obtained:
[1] = tested on: Human immunodeficiency virus 1; assay: Antiviral activity against wild-type HIV1 3B infected in human MT4 cells assessed as protection against virus-induced cytopathic effect after 4 days by MTT assay; type: functional, organism-based; conditions: Human immunodeficiency virus 1, 3B, MT4, 96 h
[2] = Cytotoxicity against human MT4 cells assessed as reduction in cell viability after 4 days by MTT assay; type: cell-based
[3] = tested on: Human immunodeficiency virus 2; assay: Antiviral activity against HIV2 ROD infected in human MT4 cells assessed as protection against virus-induced cytopathic effect after 4 days by MTT assay; type: functional, organism-based; conditions: Human immunodeficiency virus 2, ISOLATE ROD, MT4, 96 h
[4] = Selectivity index, ratio of CC50 for human MT4 cells to EC50 for wild-type HIV1 3B infected in human MT4 cells; type: toxicity, cell-based; conditions: MT4 cells infected with wild-type HIV1 3B, read-out: Ratio CC50/EC50
[5] = molecular target: Human immunodeficiency virus type 1 reverse transcriptase (Human immunodeficiency virus 1, UniProt Q72547); assay: Inhibition of recombinant wild-type HIV1 GST-fused reverse transcriptase p66/p51 RNA-dependent DNA polymerase activity expressed in Escherichia coli assessed as reduction in biotin-dUTP incorporation using poly(rA)/oligo(dT)16 as template/primer after 40 mins by PicoGreen dye based spectrofluorometric analysis
[6] = Solubility of the compound in DMSO at 125 ug/ml; type: physicochemical
[7] = tested on: Human immunodeficiency virus 1; assay: Antiviral activity against HIV1 RES056 harboring K103N/Y181C double mutant infected in human MT4 cells assessed as protection against virus-induced cytopathic effect after 4 days by MTT assay; type: functional, organism-based; conditions: Human immunodeficiency virus 1, RES056, MT4, 96 h

| Compound | EC50 [1] [µM] | CC50 at 96 h [2] [µM] | EC50 [3] [µM] | selectivity ratio [4] | IC50 [5] [µM] | solubility [6] | EC50 [7] [µM] |
| --- | --- | --- | --- | --- | --- | --- | --- |
| CCOC(=O)c1cnc(N2CCN(Cc3ccccc3C(=O)OC)CC2)nc1Oc1c(C)cc(-c2ccc(C#N)cc2)cc1C | > 125 | > 125 | > 125 | 1 | – | – | – |
| CCOC(=O)c1cnc(N2CCN(Cc3ccc(F)cc3)CC2)nc1Oc1c(C)cc(-c2ccc(C#N)cc2)cc1C | ≥ 120 | > 118 | > 118 | 1 | > 120 | Insoluble | > 118 |
| CCOC(=O)c1cnc(N2CCN(Cc3ccc(S(N)(=O)=O)cc3)CC2)nc1Oc1c(C)cc(-c2ccc(C#N)cc2)cc1C | ≥ 24.9 | ≥ 7.93 | > 7.93 | 1 | 63.5 | Insoluble | > 7.93 |
| CCOC(=O)c1cnc(N2CCN(Cc3ccc(S(C)(=O)=O)cc3)CC2)nc1Oc1c(C)cc(-c2ccc(C#N)cc2)cc1C | > 125 | > 125 | > 125 | 1 | – | – | – |
| CCOC(=O)c1cnc(N2CCN(Cc3ccccc3F)CC2)nc1Oc1c(C)cc(-c2ccc(C#N)cc2)cc1C | > 125 | > 125 | > 125 | 1 | – | – | – |
| CCOC(=O)c1cnc(N2CCN(Cc3cccc(Br)c3)CC2)nc1Oc1c(C)cc(-c2ccc(C#N)cc2)cc1C | > 125 | > 125 | > 125 | 1 | – | – | – |
| CCOC(=O)c1cnc(N2CCN(Cc3cccc(C(N)=O)c3)CC2)nc1Oc1c(C)cc(-c2ccc(C#N)cc2)cc1C | 3.36 | 14.8 | > 14.8 | 4 | ≥ 93.1 | Insoluble | > 14.8 |
| CCOC(=O)c1cnc(N2CCN(Cc3cccc(C(F)(F)F)c3)CC2)nc1Oc1c(C)cc(-c2ccc(C#N)cc2)cc1C | > 125 | > 125 | > 125 | 1 | – | – | – |
| CCOC(=O)c1cnc(N2CCN(Cc3cc(C)cc(C)c3)CC2)nc1Oc1c(C)cc(-c2ccc(C#N)cc2)cc1C | > 125 | > 125 | > 125 | 1 | – | – | – |
| CCOC(=O)c1cnc(N2CCN(Cc3ccccc3[N+](=O)[O-])CC2)nc1Oc1c(C)cc(-c2ccc(C#N)cc2)cc1C | > 78.7 | ≥ 78.7 | > 78.7 | 1 | – | – | – |
| CCOC(=O)c1cnc(N2CCN(Cc3cccc(C#N)c3)CC2)nc1Oc1c(C)cc(-c2ccc(C#N)cc2)cc1C | > 125 | > 125 | > 125 | 1 | – | – | – |
| CCOC(=O)c1cnc(N2CCN(Cc3cccc(C(=O)OC)c3)CC2)nc1Oc1c(C)cc(-c2ccc(C#N)cc2)cc1C | > 125 | > 125 | > 125 | 1 | – | – | – |
| CCOC(=O)c1cnc(N2CCN(Cc3ccc([N+](=O)[O-])cc3)CC2)nc1Oc1c(C)cc(-c2ccc(C#N)cc2)cc1C | > 125 | > 125 | > 125 | 1 | – | – | – |
| CCOC(=O)c1cnc(N2CCN(Cc3cccc([N+](=O)[O-])c3)CC2)nc1Oc1c(C)cc(-c2ccc(C#N)cc2)cc1C | 31.5 | > 125 | > 125 | > 4 | 114 | Insoluble | > 125 |
| CCOC(=O)c1cnc(N2CCN(Cc3ccc(Br)cc3)CC2)nc1Oc1c(C)cc(-c2ccc(C#N)cc2)cc1C | > 125 | > 125 | > 125 | 1 | – | – | – |
| CCOC(=O)c1cnc(N2CCN(Cc3ccc(C#N)cc3)CC2)nc1Oc1c(C)cc(-c2ccc(C#N)cc2)cc1C | > 125 | > 125 | > 125 | 1 | – | – | – |
| CCOC(=O)c1cnc(N2CCN(Cc3ccccc3C(F)(F)F)CC2)nc1Oc1c(C)cc(-c2ccc(C#N)cc2)cc1C | > 125 | > 125 | > 125 | 1 | – | – | – |
| CCOC(=O)c1cnc(N2CCN(Cc3cccc(F)c3)CC2)nc1Oc1c(C)cc(-c2ccc(C#N)cc2)cc1C | > 125 | > 125 | > 125 | 1 | – | – | – |
| CCOC(=O)c1cnc(N2CCN(Cc3cccc(OC)c3)CC2)nc1Oc1c(C)cc(-c2ccc(C#N)cc2)cc1C | > 125 | > 125 | > 125 | 1 | – | – | – |
| CCOC(=O)c1ccc(CN2CCN(c3ncc(C(=O)OCC)c(Oc4c(C)cc(-c5ccc(C#N)cc5)cc4C)n3)CC2)cc1 | > 125 | > 125 | > 125 | 1 | – | – | – |
| CCOC(=O)c1cnc(N2CCN(Cc3cc(F)cc(F)c3)CC2)nc1Oc1c(C)cc(-c2ccc(C#N)cc2)cc1C | > 125 | > 125 | > 125 | 1 | – | – | – |
| CCOC(=O)c1cnc(N2CCN(Cc3ccc(C(N)=O)cc3)CC2)nc1Oc1c(C)cc(-c2ccc(C#N)cc2)cc1C | > 66.5 | 66.5 | > 66.5 | < 1 | ≥ 113 | Insoluble | > 66.5 |
| CCOC(=O)c1cnc(N2CCN(Cc3ccccc3Br)CC2)nc1Oc1c(C)cc(-c2ccc(C#N)cc2)cc1C | > 125 | > 125 | > 125 | 1 | – | – | – |
| CCOC(=O)c1cnc(N2CCN(Cc3ccccc3C#N)CC2)nc1Oc1c(C)cc(-c2ccc(C#N)cc2)cc1C | > 125 | > 125 | > 125 | 1 | – | – | – |
| CCOC(=O)c1cnc(N2CCN(Cc3ccc(C(F)(F)F)cc3)CC2)nc1Oc1c(C)cc(-c2ccc(C#N)cc2)cc1C | > 125 | > 125 | > 125 | 1 | – | – | – |
| CCOC(=O)c1cnc(N2CCN(Cc3ccc(C(=O)OC)cc3)CC2)nc1Oc1c(C)cc(-c2ccc(C#N)cc2)cc1C | > 125 | > 125 | > 125 | 1 | – | – | – |
| Cc1cc(C#N)cc(C)c1Oc1nc(Nc2ccc(C#N)cc2)nc(N)c1Br [ETRAVIRINE] | 0.0022 | > 2 | – | – | – | – | 0.015 |
| Cc1ccnc2c1NC(=O)c1cccnc1N2C1CC1 [NEVIRAPINE] | 0.1 | > 4 | – | – | – | – | > 4 |
